Measured values: patent publication US20130059375A1, “METHOD FOR PREPARING ES CELLS” (RIKEN, priority 2010, published 2013)

Test system: inner cell mass (ICM) of NOD/SCID mouse
Assay: Inventors' earlier attempts to establish ES cells from NOD/SCID inner cell mass by known methods
Format: cell-based
Settings: factor(s) in medium
Method: The present inventors have considered that this problem can be solved by establishing an ES cell from an NOD/SCID background mouse and introducing human gene thereinto to generate the human gene-introduced NOD/SCID background mouse. […] Furthermore, an FGF receptor inhibitor, an MEK activation inhibitor and a GSK3 inhibitor were added to the medium according to the method that established an ES cell from an NOD mouse (non-patent document 4).

## ACTH: known peptide hormone consisting of 39 amino acids (SYSMEHFRWGKPVGKKRRPVKVYPNGAEDESAEAFPLEF; Corticotropin; UniProt P01189 138-176, looked up)
  establishment of ES cell: could not establish
